Data set [1] concerns the target Tyk2 (Homo sapiens (Human), UniProt P29597). The data set can be described thus: LanthaScreen JAK biochemical assay, Tyk2. The procedure:
A panel of four LanthaScreen JAK biochemical assays (JAK1, 2, 3 and Tyk2) were carried in a common kinase reaction buffer (50 mM HEPES, pH 7.5, 0.01% Brij-35, 10 mM MgCl2, and 1 mM EGTA). Recombinant GST-tagged JAK enzymes and a GFP-tagged STAT1 peptide substrate were obtained from Life Technologies.
For orientation: In TR-FRET formats the signal depends on donor and acceptor labels being close together.

Data set [2] concerns IL-4 stimulated STAT6 phosphorylation in CD3+ T cells in human PBMCs. Briefly: Cellular JAK potency assay: inhibition of IL-4 stimulated pSTAT6 in CD3+ T cells. Format: cell-based. The settings on record: T-cell. On the procedure: The potency of test compounds for inhibition of interleukin-4 (IL-4) stimulated STAT6 phosphorylation was measured in CD3-positive (CD3+) T cells in human peripheral blood mononuclear cells (PBMCs) isolated from human whole blood (Stanford Blood Center) using flow cytometry. Because IL-4 signals through JAK, this assay provides a measure of JAK cellular potency.
CD3+ T cells were identified using a […] (PE) conjugated anti-CD3 antibody (Clone UCHT1, BD Biosciences), while an Alexa Fluor 647 conjugated anti-pSTAT6 antibody (pY641, Clone 18/P, BD Biosciences) was used to detect STAT6 phosphorylation.
Human peripheral blood mononuclear cells (PBMC) were isolated from human whole blood of healthy donors using a ficoll gradient. […] After incubation, cells were washed twice in FACS buffer before being analyzed using a LSRII flow cytometer (BD Biosciences).
To determine the inhibitory potency of test compounds in response to IL-4, the median fluorescent intensity (MFI) of pSTAT6 was measured in CD3+ T cells. IC50 values were determined from analysis of the inhibition curves of MFI vs compound concentration. Data are expressed as pIC50 (negative decadic logarithm IC50) values (mean±standard deviation).

Data set [3] relates to oxazolone-induced colitis. Briefly: Mouse model of oxazolone-induced colitis. Format: in vivo, BALB/C mice. The procedure: Oxazolone-induced colitis is an experimental model that has a histological resemblance to human ulcerative colitis (Heller et al. […], 2002, 17, 629-638). Adult BALB/C mice from Harlan were used in the assay. On day 1, animals were lightly anesthetized with isoflurane and the hairs between the shoulder were carefully removed before oxazolone (4%, 150 μL, 4:1 acetone: olive oil formulation) or vehicle solution was slowly applied for skin sensitization. Seven days after skin sensitization, the mice were fasted overnight, anesthetized with isoflurane inhalation, and a 1 mL syringe equipped with a 3.5-F catheter, filled with oxazolone solution, was inserted carefully about 4 cm into the colon of the mouse. Following insertion, 50 μL of the oxazolone solution (1%, 1:1 ethanol:water formulation) was injected very slowly (over 30 sec using an injection pump) into the colon. The catheter was removed and the mice were held vertically (head down) for 2 min to ensure that the entire oxazolone solution remained inside the colon. Drug treatment (PO, BID or TID) or vehicle was initiated a day prior to the oxazolone intrarectal (IR) challenge. Two-day post oxazolone intrarectal challenge, the Disease Activity Index (DAI) was assessed by treatment-blinded experimenters for each mouse according to the criteria score: stool consistency score (0, normal; 2, loose; 4, diarrhea), gross bleeding score (0, absence; 2, blood tinged; 4, presence), and weight loss score (0, none; 1, 1%-5%; 2, 5%-10%; 3, 10%-20%; 4, more than 20%); DAI=average of (stool consistency score+gross bleeding score+weight loss score).
Selected compounds of the invention were tested in the assay. Efficacy in the model is evidenced by a decrease in DAI score as compared with the score from vehicle treated animals.

Data set [4] concerns mouse splenic NK, B and T cells. The following applies: in vivo, po. The procedure:
Depletion of mouse splenic cells is an experimental model of immunosuppression (Kudlacz et al., Am. J. of Transplantation, 2004, 4, 51-57). The compound of Example 2 was assessed in the mouse splenic cell model following the same treatment paradigm as that used in the oxazolone-induced colitis model (Assay 8).
The compound (1, 10 and 100 mg/kg, BID) and tofacitinib (30 and 60 mg/kg, BID) as a positive control were dosed orally for three days to naïve mice. Spleens were harvested 1 h post last dose and crushed immediately for cell subtype staining. Prior to fixation, fluorophore-labelled antibodies for CD19 (FITC; B cells), CD3e (PE; pan T cells) and DX5 (APC; NK cells) were incubated with splenocyte samples from each animal to allow for simultaneous, multiple subtype % analysis on the flow cytometer. The number of total spleen cells for each animal was measured by Scepter™ 2.0 Handheld Automated Cell Counter.
The absolute number of lymphocyte subtype population (e.g., splenic B, T and NK cells) was calculated from the percentage of each subtype times total spleen cells for each animal. A one way ANOVA, with Dunnett's post hoc test, was used to compare the splenic lymphocytes number of the vehicle and test compound groups. The a level was set at p<0.05. Data were presented as the mean±SEM for each group.

The nature of data set [5]: in vivo. The following applies: Sprague Dawley, rat, po.
Method: The test compound was formulated in 0.5% methyl-cellulose in water and dosed via oral gavage at 3.2 mg/kg and 100 mg/kg to Sprague Dawley rats. At various time points (typically 0.5, 1, 3, 6, 24 hr) post dosing, blood samples were removed via cardiac puncture and intact colons were excised from the rats. Blood samples were centrifuged at 1500×g for 15 min to collect plasma. Colons were washed with ice cold phosphate buffered saline (PBS), weighed, and homogenized at a dilution of 1:10 in PBS. Plasma and colon levels of test compound were determined by LC-MS analysis against analytical standards constructed into a standard curve in the test matrix. A colon to plasma ratio was determined as the ratio of the colon AUC to the plasma AUC in μg hr/g.

Where two headings read alike, the source gives them in different places.

Tyk2, sequence (P29597 whole entry): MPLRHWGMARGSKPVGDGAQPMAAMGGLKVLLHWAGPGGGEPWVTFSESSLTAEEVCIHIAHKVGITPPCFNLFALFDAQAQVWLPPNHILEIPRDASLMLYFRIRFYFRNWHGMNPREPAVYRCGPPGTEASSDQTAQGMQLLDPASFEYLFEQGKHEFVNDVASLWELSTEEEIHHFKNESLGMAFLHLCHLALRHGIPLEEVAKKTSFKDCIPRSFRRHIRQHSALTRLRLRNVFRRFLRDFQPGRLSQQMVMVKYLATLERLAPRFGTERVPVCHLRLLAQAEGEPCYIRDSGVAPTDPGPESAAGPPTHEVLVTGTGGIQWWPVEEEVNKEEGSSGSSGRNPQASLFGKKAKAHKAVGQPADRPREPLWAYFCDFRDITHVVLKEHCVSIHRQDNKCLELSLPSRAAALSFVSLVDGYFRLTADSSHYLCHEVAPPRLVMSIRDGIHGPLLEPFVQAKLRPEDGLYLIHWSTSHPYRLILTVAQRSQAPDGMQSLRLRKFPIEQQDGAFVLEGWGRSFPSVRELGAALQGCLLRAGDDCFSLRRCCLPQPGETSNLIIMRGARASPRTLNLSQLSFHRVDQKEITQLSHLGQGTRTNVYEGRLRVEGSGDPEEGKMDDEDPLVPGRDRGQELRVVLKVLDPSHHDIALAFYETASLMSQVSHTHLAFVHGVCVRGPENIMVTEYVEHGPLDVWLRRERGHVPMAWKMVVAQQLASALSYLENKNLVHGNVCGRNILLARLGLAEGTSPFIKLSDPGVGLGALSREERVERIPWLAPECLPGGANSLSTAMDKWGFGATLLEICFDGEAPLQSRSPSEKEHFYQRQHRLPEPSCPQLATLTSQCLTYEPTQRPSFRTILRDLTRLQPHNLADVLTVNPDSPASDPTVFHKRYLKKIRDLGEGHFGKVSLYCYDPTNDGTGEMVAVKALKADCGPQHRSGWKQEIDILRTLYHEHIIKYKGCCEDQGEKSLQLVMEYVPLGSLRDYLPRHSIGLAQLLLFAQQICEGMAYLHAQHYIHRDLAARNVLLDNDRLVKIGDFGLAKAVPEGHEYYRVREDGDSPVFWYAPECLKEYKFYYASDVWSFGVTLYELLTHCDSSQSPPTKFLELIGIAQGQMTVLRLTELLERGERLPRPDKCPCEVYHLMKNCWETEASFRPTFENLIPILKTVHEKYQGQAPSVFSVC

As usually defined, the Ki is the dissociation constant of the complex between target and ligand, obtained from inhibition or displacement. The low end stands for higher affinity, the high end for lower affinity. For the compound `COc1cc(Nc2cc(CO)[nH]n2)nc(N(C)[C@@H]2C[C@H]3CCC[C@@H](C2)N3S(=O)(=O)N2CC(C#N)C2)n1` [Example 2, 1-(((1R,3s,5S)-3-((4-((5-(Hydroxymethyl)-1H-pyrazol-3-yl)amino)-6-methoxypyrimidin-2-yl)(methyl)amino)-9-azabicyclo[3.3.1]nonan-9-yl)sulfonyl)azetidine-3-carbonitrile], the inhibition constant Ki in data set [1] is 0.1 to 1 nM. In addition, the IC50 in data set [2] (IL-4 stimulated pSTAT6, CD3+ T cells, read-out: pIC50 value (converted)) is roughly 50.1 nM; in data set [2] (cellular assay, Assay 4, read-out: IC50 for inhibition of IL-4), no more than 50 nM. The “activity in the oxazolone-induced colitis model” value in data set [3] (mice) is on record as “demonstrated activity”. In addition, the “minimal dose that caused a significant anti-colitic effect” value in data set [3] (mouse, PO BID) stood at 1 mg/kg. In addition, the “decrease in DAI score as compared with vehicle treated animals” value in data set [3] (mouse, PO, 1, 3, and/or 10 mg/kg BID) is reported as “statistically significant decrease”. In addition, the “treatment effect on B and T cell populations” value in data set [4] is given as “No treatment effect”. The Kp in data set [5] (5 mg/kg) was greater than 250; in data set [5] (100 mg/kg) it was greater than 1200.

The record behind these values is US10028960B2, “Pyrimidine compounds as JAK kinase inhibitors” (THERAVANCE BIOPHARMA R&D IP, LLC, priority 2016, dated 2018).
